Legend:
Test in all cases: Test B pre-/postemergence plant response
Assay type in all cases: in vivo
[1] = tested on: wheat (Triticum aestivum)
Source text: (§1) Seeds of plant species selected from blackgrass (Alopecurus myosuroides), downy bromegrass (Bromus tectorum), green foxtail (Setaria viridis), Italian ryegrass (Lolium multiflorum), wheat (Triticum aestivum), wild oat (Avena fatua), catchweed bedstraw (Galium aparine), bermudagrass (Cynodon dactylon), surinam grass (Brachiaria decumbens), cocklebur (Xanthium strumarium), corn (Zea mays), large crabgrass (Digitaria sanguinalis), woolly cupgrass (Eriochloa villosa), giant foxtail (Setaria faberii), goosegrass (Eleusine indica), johnsongrass (Sorghum halepense), kochia (Kochia scoparia), lambsquarters (Chenopodium album), morningglory (Ipomoea coccinea), eastern black (E.B.) nightshade (Solanum ptycanthum), yellow nutsedge (Cyperus esculentus), pigweed (Amaranthus retroflexus), common ragweed (Ambrosia elation), Russian thistle (Salsola iberica), soybean (Glycine max), common (oilseed) sunflower (Helianthus annuus), and velvetleaf (Abutilon theophrasti) were planted and treated preemergence with test chemicals formulated in a non-phytotoxic solvent mixture which included a surfactant.
(§2) At the same time, plants selected from these crop and weed species and also winter barley (Hordeum vulgare), canarygrass (Phalaris minor), chickweed (Stellaria media) and windgrass (Apera spica-venti) were treated with postemergence applications of some of the test chemicals formulated in the same manner. Plants ranged in height from 2 to 18 cm (1- to 4-leaf stage) for postemergence treatments.
(§3) Plant species in the flooded paddy test consisted of rice (Oryza sativa), umbrella sedge (Cyperus difformis), ducksalad (Heteranthera limosa) and barnyardgrass (Echinochloa crus-galli) grown to the 2-leaf stage for testing. At time of treatment, test pots were flooded to 3 cm above the soil surface, treated by application of test compounds directly to the paddy water, and then maintained at that water depth for the duration of the test. Treated plants and controls were maintained in a greenhouse for 13 to 15 days, after which time all species were compared to controls and visually evaluated. Plant response ratings, summarized in Table B, are based on a scale of 0 to 100 where 0 is no effect and 100 is complete control. A dash (-) response means no test result.

[2] = tested on: woolly cupgrass (Eriochloa villosa)
Source text: as §1, §2, §3

wild oat (Avena fatua) = tested on: wild oat (Avena fatua)
Source text: as §1, §2, §3

[3] = tested on: downy bromegrass (Bromus tectorum)
Source text: as §1, §2, §3

[4] = tested on: yellow nutsedge (Cyperus esculentus)
Source text: as §1, §2, §3

[5] = tested on: blackgrass (Alopecurus myosuroides)
Source text: as §1, §2, §3

[6] = tested on: common (oilseed) sunflower (Helianthus annuus); conditions: Preemergence
Source text: as §1, §2, §3

[7] = tested on: common ragweed (Ambrosia elation)
Source text: as §1, §2, §3

[8] = tested on: eastern black (E.B.) nightshade (Solanum ptycanthum); conditions: Preemergence
Source text: as §1, §2, §3

[9] = tested on: cocklebur (Xanthium strumarium)
Source text: as §1, §2, §3

[10] = tested on: green foxtail (Setaria viridis)
Source text: as §1, §2, §3

corn (Zea mays) = tested on: corn (Zea mays)
Source text: as §1, §2, §3

[11] = tested on: surinam grass (Brachiaria decumbens)
Source text: as §1, §2, §3

[12] = Postemergence, 16 g ai/ha, scale 0 to 100
[13] = Postemergence, 31 g ai/ha, scale 0 to 100, 0 no effect, 100 complete control
[14] = Postemergence, 62 g ai/ha, scale 0 to 100
[15] = Postemergence, 125 g ai/ha, scale 0 to 100
[16] = Preemergence, 16 g ai/ha, scale 0 to 100 (0 no effect, 100 complete control)
[17] = Preemergence, 31 g ai/ha, 0 to 100 scale, 0 no effect, 100 complete control
[18] = Preemergence, 62 g ai/ha, scale 0 to 100
[19] = Preemergence, 125 g ai/ha, scale 0 to 100
[20] = 16 g ai/ha, scale 0 to 100 (0 no effect, 100 complete control)
[21] = 31 g ai/ha, 0 to 100 scale, 0 no effect, 100 complete control

## CCc1cc(-c2ccc(C(F)(F)F)cc2)nn1-c1c(OC(=O)OC(C)C)cnn(C)c1=O [Compound 12]
[1]; [12]
  Plant response rating, Wheat: 90
[1]; [13]
  Plant response rating, Wheat: 95
[1]; [14]
  Plant response rating, Wheat: 95
[1]; [15]
  Plant response rating, Wheat: 100
[1]; [16]
  Plant response rating, Wheat: 20
[1]; [17]
  Plant response rating, Wheat: 90
[1]; [18]
  Plant response rating, Wheat: 95
[1]; [19]
  Plant response rating, Wheat: 95
[2]; [12]
  Plant response rating, Cupgrass, Woolly: 100
[2]; [13]
  Plant response rating, Cupgrass, Woolly: 100
[2]; [14]
  Plant response rating, Cupgrass, Woolly: 100
[2]; [15]
  Plant response rating, Cupgrass, Woolly: 100
[2]; [16]
  Plant response rating, Cupgrass, Woolly: 80
[2]; [17]
  Plant response rating, Cupgrass, Woolly: 85
[2]; [18]
  Plant response rating, Cupgrass, Woolly: 98
[2]; [19]
  Plant response rating, Cupgrass, Woolly: 100
Wild oat (Avena fatua); [12]
  Plant response rating, Oat, Wild: 100
Wild oat (Avena fatua); [13]
  Plant response rating, Oat, Wild: 100
Wild oat (Avena fatua); [14]
  Plant response rating, Oat, Wild: 100
Wild oat (Avena fatua); [15]
  Plant response rating, Oat, Wild: 100
Wild oat (Avena fatua); [16]
  Plant response rating, Oat, Wild: 60
Wild oat (Avena fatua); [17]
  Plant response rating, Oat, Wild: 90
Wild oat (Avena fatua); [18]
  Plant response rating, Oat, Wild: 95
Wild oat (Avena fatua); [19]
  Plant response rating, Oat, Wild: 98
[3]; [12]
  Plant response rating, Bromegrass, Downy: 85
[3]; [13]
  Plant response rating, Bromegrass, Downy: 85
[3]; [14]
  Plant response rating, Bromegrass, Downy: 85
[3]; [16]
  Plant response rating, Bromegrass, Downy: 0
[3]; [17]
  Plant response rating, Bromegrass, Downy: 0
[3]; [18]
  Plant response rating, Bromegrass, Downy: 70
[3]; [19]
  Plant response rating, Bromegrass, Downy: 75
[4]; [12]
  Plant response rating, Nutsedge, Yellow: 0
[4]; [13]
  Plant response rating, Nutsedge, Yellow: 0
[4]; [14]
  Plant response rating, Nutsedge, Yellow: 0
[4]; [15]
  Plant response rating, Nutsedge, Yellow: 0
[4]; [16]
  Plant response rating, Nutsedge, Yellow: 0
[4]; [17]
  Plant response rating, Nutsedge, Yellow: 0
[4]; [18]
  Plant response rating, Nutsedge, Yellow: 0
[4]; [19]
  Plant response rating, Nutsedge, Yellow: 0
[5]; [12]
  Plant response rating, Blackgrass: 100
[5]; [13]
  Plant response rating, Blackgrass: 100
[5]; [14]
  Plant response rating, Blackgrass: 100
[5]; [15]
  Plant response rating, Blackgrass: 100
[5]; [16]
  Plant response rating, Blackgrass: 98
[5]; [17]
  Plant response rating, Blackgrass: 100
[5]; [18]
  Plant response rating, Blackgrass: 100
[5]; [19]
  Plant response rating, Blackgrass: 100
[6]; [20]
  Plant response rating, Sunflower: 0
[6]; [21]
  Plant response rating, Sunflower: 0
[6]; 62 g ai/ha, scale 0 to 100
  Plant response rating, Sunflower: 0
[6]; 125 g ai/ha, scale 0 to 100
  Plant response rating, Sunflower: 0
[7]; [12]
  Plant response rating, Ragweed: 0
[7]; [13]
  Plant response rating, Ragweed: 0
[7]; [14]
  Plant response rating, Ragweed: 0
[7]; [15]
  Plant response rating, Ragweed: 0
[7]; [16]
  Plant response rating, Ragweed: 0
[7]; [17]
  Plant response rating, Ragweed: 0
[7]; [18]
  Plant response rating, Ragweed: 0
[7]; [19]
  Plant response rating, Ragweed: 0
[8]; [20]
  Plant response rating, Nightshade, E. B.: 0
[8]; [21]
  Plant response rating, Nightshade, E. B.: 0
[8]; 62 g ai/ha, scale 0 to 100
  Plant response rating, Nightshade, E. B.: 50
[8]; 125 g ai/ha, scale 0 to 100
  Plant response rating, Nightshade, E. B.: 85
[9]; [12]
  Plant response rating, Cocklebur: 0
[9]; [13]
  Plant response rating, Cocklebur: 0
[9]; [14]
  Plant response rating, Cocklebur: 0
[9]; [15]
  Plant response rating, Cocklebur: 0
[9]; [16]
  Plant response rating, Cocklebur: 0
[9]; [17]
  Plant response rating, Cocklebur: 0
[9]; [18]
  Plant response rating, Cocklebur: 0
[9]; [19]
  Plant response rating, Cocklebur: 0
[10]; [12]
  Plant response rating, Foxtail, Green: 85
[10]; [13]
  Plant response rating, Foxtail, Green: 100
[10]; [14]
  Plant response rating, Foxtail, Green: 100
[10]; [15]
  Plant response rating, Foxtail, Green: 100
[10]; [16]
  Plant response rating, Foxtail, Green: 100
[10]; [17]
  Plant response rating, Foxtail, Green: 100
[10]; [18]
  Plant response rating, Foxtail, Green: 100
[10]; [19]
  Plant response rating, Foxtail, Green: 100
Corn (Zea mays); [12]
  Plant response rating, Corn: 100
Corn (Zea mays); [13]
  Plant response rating, Corn: 100
Corn (Zea mays); [14]
  Plant response rating, Corn: 100
Corn (Zea mays); [15]
  Plant response rating, Corn: 100
Corn (Zea mays); [16]
  Plant response rating, Corn: 70
Corn (Zea mays); [17]
  Plant response rating, Corn: 75
Corn (Zea mays); [18]
  Plant response rating, Corn: 95
Corn (Zea mays); [19]
  Plant response rating, Corn: 95
[11]; [12]
  Plant response rating, Surinam Grass: 100
[11]; [13]
  Plant response rating, Surinam Grass: 100
[11]; [14]
  Plant response rating, Surinam Grass: 100
[11]; [15]
  Plant response rating, Surinam Grass: 100
[11]; [16]
  Plant response rating, Surinam Grass: 100
[11]; [17]
  Plant response rating, Surinam Grass: 100
[11]; [18]
  Plant response rating, Surinam Grass: 100
[11]; [19]
  Plant response rating, Surinam Grass: 100
